# Experimental data from patent publication US20260262643A1, “HERBICIDAL BENZOXAZINES” (FMC CORPORATION, priority 2022, published 2026).
# Tests used:
# wheat [1] = experiment: Test C preemergence; type: in vivo, Triticum aestivum
# Method in brief: (§1)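 Greenhouse herbicide screen, 10-day duration. Test chemicals in solvent/surfactant blend were sprayed onto soil at sowing (pre) or onto 2–10 cm seedlings at one to two leaves (post); injury scored visually against controls, 0 no effect to 100 complete control.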
# ryegrass, Italian [2] = experiment: Test C postemergence; type: in vivo, Lolium multiflorum; settings: 10 days, 0 to 100 scale (0 no effect, 100 complete control)
# Method in brief: as §1
# pigweed, palmer [3] = experiment: Test C postemergence; type: in vivo, Amaranthus palmeri; settings: 10 days, 0 to 100 scale (0 no effect, 100 complete control)
# Method in brief: as §1
# ducksalad = experiment: Test D flooded paddy test; type: in vivo, Heteranthera limosa; settings: 250 g ai/ha, applied to paddy water, visual rating after 13 to 14 days, scale 0 to 100 (0 no effect, 100 complete control)
# Method in brief: (§2)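 Compounds go straight into paddy water over 2-leaf plants in pots flooded to 3 cm. Greenhouse holding lasts 13 to 14 days. Injury is scored by eye against controls from 0 (none) to 100 (complete control).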
# kochia [4] = experiment: Test C postemergence; type: in vivo, Bassia scoparia; settings: 10 days, 0 to 100 scale (0 no effect, 100 complete control)
# Method in brief: as §1
# ryegrass, Italian [5] = experiment: Test C preemergence; type: in vivo, Lolium multiflorum
# Method in brief: as §1
# sedge, umbrella = experiment: Test D flooded paddy test; type: in vivo, Cyperus difformis; settings: 250 g ai/ha, applied to paddy water, visual rating after 13 to 14 days, scale 0 to 100 (0 no effect, 100 complete control)
# Method in brief: as §2
# barnyardgrass [6] = experiment: Test D flooded paddy test; type: in vivo, Echinochloa crus-galli; settings: 250 g ai/ha, applied to paddy water, visual rating after 13 to 14 days, scale 0 to 100 (0 no effect, 100 complete control)
# Method in brief: as §2
# galium = experiment: Test C postemergence; type: in vivo, Galium aparine; settings: 10 days, 0 to 100 scale (0 no effect, 100 complete control)
# Method in brief: as §1
# wheat [7] = experiment: Test C postemergence; type: in vivo, Triticum aestivum; settings: 10 days, 0 to 100 scale (0 no effect, 100 complete control)
# Method in brief: as §1
# ragweed [8] = experiment: Test C postemergence; type: in vivo, Ambrosia artemisiifolia; settings: 10 days, 0 to 100 scale (0 no effect, 100 complete control)
# Method in brief: as §1
# barnyardgrass [9] = experiment: Test C postemergence; type: in vivo, Echinochloa crusgalli; settings: 10 days, 0 to 100 scale (0 no effect, 100 complete control)
# Method in brief: as §1
# soybean [10] = experiment: Test C postemergence; type: in vivo, Glycine max; settings: 10 days, 0 to 100 scale (0 no effect, 100 complete control)
# Method in brief: as §1
# pigweed, palmer [11] = experiment: Test C preemergence; type: in vivo, Amaranthus palmeri
# Method in brief: as §1
# soybean [12] = experiment: Test C preemergence; type: in vivo, Glycine max
# Method in brief: as §1
# kochia [13] = experiment: Test C preemergence; type: in vivo, Bassia scoparia
# Method in brief: as §1
# corn [14] = experiment: Test C postemergence; type: in vivo, Zea mays; settings: 10 days, 0 to 100 scale (0 no effect, 100 complete control)
# Method in brief: as §1
# ragweed [15] = experiment: Test C preemergence; type: in vivo, Ambrosia artemisiifolia
# Method in brief: as §1
# green foxtail [16] = experiment: Test C postemergence; type: in vivo, Setaria viridis; settings: 10 days, 0 to 100 scale (0 no effect, 100 complete control)
# Method in brief: as §1
# oat, wild [17] = experiment: Test C postemergence; type: in vivo, Avena fatua; settings: 10 days, 0 to 100 scale (0 no effect, 100 complete control)
# Method in brief: as §1
# green foxtail [18] = experiment: Test C preemergence; type: in vivo, Setaria viridis
# Method in brief: as §1
# oat, wild [19] = experiment: Test C preemergence; type: in vivo, Avena fatua
# Method in brief: as §1
# barnyardgrass [20] = experiment: Test C preemergence; type: in vivo, Echinochloa crusgalli
# Method in brief: as §1
# horseweed = experiment: Test C postemergence; type: in vivo, Erigeron canadensis; settings: 10 days, 0 to 100 scale (0 no effect, 100 complete control)
# Method in brief: as §1
# rice = experiment: Test D flooded paddy test; type: in vivo, Oryza sativa; settings: 250 g ai/ha, applied to paddy water, visual rating after 13 to 14 days, scale 0 to 100 (0 no effect, 100 complete control)
# Method in brief: as §2
# blackgrass [21] = experiment: Test C postemergence; type: in vivo, Alopecurus myosuroides; settings: 10 days, 0 to 100 scale (0 no effect, 100 complete control)
# Method in brief: as §1
# corn [22] = experiment: Test C preemergence; type: in vivo, Zea mays
# Method in brief: as §1
# blackgrass [23] = experiment: Test C preemergence; type: in vivo, Alopecurus myosuroides
# Method in brief: as §1
# [24] = 500 g ai/ha, preemergence, 0 to 100 scale (0 no effect, 100 complete control)
# [25] = Preemergence, 125 g ai/ha, 0 to 100 scale, 0 no effect, 100 complete control
smiles,measurement,setting,value
CC(C)c1ncn(-c2cccc(C(=O)N3CC(C(F)(F)F)Oc4c(Cl)cccc43)c2)n1 (stereo not shown) [Compound 348],Wheat plant response rating,wheat [1]; [24],80
same,"Plant response rating, Wheat",wheat [1]; [25],50
same,"Plant response rating, Ryegrass, Italian","ryegrass, Italian [2]; 500 g ai/ha, postemergence",70
same,"Plant response rating, Ryegrass, Italian","ryegrass, Italian [2]; Postemergence, 125 g ai/ha",30
same,"Plant response rating, Pigweed, Palmer","pigweed, palmer [3]; 500 g ai/ha, postemergence",100
same,"Plant response rating, Pigweed, Palmer","pigweed, palmer [3]; Postemergence, 125 g ai/ha",90
same,"Plant response rating, Ducksalad (Flood)",ducksalad,75
same,"Plant response rating, Kochia","kochia [4]; 500 g ai/ha, postemergence",100
same,"Plant response rating, Kochia","kochia [4]; Postemergence, 125 g ai/ha",70
same,"Ryegrass, Italian plant response rating","ryegrass, Italian [5]; [24]",100
same,"Plant response rating, Ryegrass, Italian","ryegrass, Italian [5]; [25]",90
same,"Plant response rating, Sedge, Umbrella (Flood)","sedge, umbrella",45
same,"Plant response rating, Barnyardgrass (Flood)",barnyardgrass [6],30
same,"Plant response rating, Galium","galium; 500 g ai/ha, postemergence",100
same,"Plant response rating, Galium","galium; Postemergence, 125 g ai/ha",100
same,"Plant response rating, Wheat","wheat [7]; 500 g ai/ha, postemergence",30
same,"Plant response rating, Wheat","wheat [7]; Postemergence, 125 g ai/ha",10
same,"Plant response rating, Ragweed","ragweed [8]; 500 g ai/ha, postemergence",60
same,"Plant response rating, Ragweed","ragweed [8]; Postemergence, 125 g ai/ha",30
same,"Plant response rating, Barnyardgrass","barnyardgrass [9]; 500 g ai/ha, postemergence",40
same,"Plant response rating, Barnyardgrass","barnyardgrass [9]; Postemergence, 125 g ai/ha",10
same,"Plant response rating, Soybean","soybean [10]; 500 g ai/ha, postemergence",100
same,"Plant response rating, Soybean","soybean [10]; Postemergence, 125 g ai/ha",100
same,"Pigweed, Palmer plant response rating","pigweed, palmer [11]; [24]",100
same,"Plant response rating, Pigweed, Palmer","pigweed, palmer [11]; [25]",100
same,Soybean plant response rating,soybean [12]; [24],80
same,"Plant response rating, Soybean",soybean [12]; [25],40
same,Kochia plant response rating,kochia [13]; [24],100
same,"Plant response rating, Kochia",kochia [13]; [25],90
same,"Plant response rating, Corn","corn [14]; 500 g ai/ha, postemergence",30
same,"Plant response rating, Corn","corn [14]; Postemergence, 125 g ai/ha",10
same,Ragweed plant response rating,ragweed [15]; [24],20
same,"Plant response rating, Ragweed",ragweed [15]; [25],20
same,"Plant response rating, Foxtail, Green","green foxtail [16]; 500 g ai/ha, postemergence",70
same,"Plant response rating, Foxtail, Green","green foxtail [16]; Postemergence, 125 g ai/ha",50
same,"Plant response rating, Oat, Wild","oat, wild [17]; 500 g ai/ha, postemergence",60
same,"Plant response rating, Oat, Wild","oat, wild [17]; Postemergence, 125 g ai/ha",20
same,"Foxtail, Green plant response rating",green foxtail [18]; [24],100
same,"Plant response rating, Foxtail, Green",green foxtail [18]; [25],100
same,"Oat, Wild plant response rating","oat, wild [19]; [24]",90
same,"Plant response rating, Oat, Wild","oat, wild [19]; [25]",60
same,Barnyardgrass plant response rating,barnyardgrass [20]; [24],100
same,"Plant response rating, Barnyardgrass",barnyardgrass [20]; [25],60
same,"Plant response rating, Horseweed","horseweed; 500 g ai/ha, postemergence",40
same,"Plant response rating, Horseweed","horseweed; Postemergence, 125 g ai/ha",0
same,"Plant response rating, Rice (Flood)",rice,0
same,"Plant response rating, Blackgrass","blackgrass [21]; 500 g ai/ha, postemergence",100
same,"Plant response rating, Blackgrass","blackgrass [21]; Postemergence, 125 g ai/ha",70
same,Corn plant response rating,corn [22]; [24],0
same,"Plant response rating, Corn",corn [22]; [25],0
same,Blackgrass plant response rating,blackgrass [23]; [24],90
same,"Plant response rating, Blackgrass",blackgrass [23]; [25],50
